Experimental data from EP4104902B1, “COMPOUNDS AND M[…] SAME” (priority 2020, dated 2021).
Read-outs that look alike come from different tables or passages of the source.

Tests used:
[1] = test system: mouse neuroblastoma cell strain Neuro-2A; experiment: Anti-cancer cell activity evaluation (minimum inhibitory concentration with respect to cells); format: cell-based; conditions: MIC, 3 days
[2] = test system: recombinant rabies virus 1088 strain expressing Gaussia Luciferase (GLuc) (1088/GLuc); format: cell-based
rabies virus = conditions: mouse, in vivo; cited from earlier work
[3] = compounds of formula XXIIB and formula XXIIF
[4] = compounds of formula XXIIB and formula XXIIF (continuation)

Structure (SMILES)	Anti-cancer cell activity ([1]; compounds of formula XXIB)	IC50 ([2]; read-out: Anti-rabies activity) [µM]	Anti-cancer cell activity [1, 3]	also measured
CC(C)CN1C[C@@H]2C[C@H]3CN[C@]2(C(=O)NCc2cccc(Cl)c2)[C@@H]1[C@@H]3CCc1ccccc1 (relative stereo) [IB-926]	b (b if greater than 10 µM and less than or equal to 20 µM)	< 5		
CC(C)CN1CC2CC3C=NC2(C(=O)NCc2ccccc2)C1C3CCCCc1ccccc1 (centres unmarked) [IIB-346]		< 5	b (b if greater than 10 µM and less than or equal to 20 µM)	
CC(C)CN1CC2CC3C=NC2(C(=O)NCc2ccccc2)C1C3CCCc1ccccc1 (centres unmarked) [IIB-336]		< 5	c (c if greater than 20 µM and less than or equal to 40 µM)	
COc1cccc(CNC(=O)C23CC4CN(CC(C)C)C(C4CN2)C3CCCc2ccccc2)c1 (centres unmarked) [IF-894]		< 5		Anti-cancer cell activity ([1]; compounds of formula XXIF): c (c if greater than 20 µM and less than or equal to 40 µM)
CC(C)CN1C[C@@H]2C[C@H]3CN[C@]2(C(=O)NCc2cccc(F)c2)[C@@H]1[C@@H]3CCCCc1ccccc1 (relative stereo) [IB-936]	b (b if greater than 10 µM and less than or equal to 20 µM)	< 5		
CC(C)CCN1CC2CC3(C(=O)NCc4cccc(F)c4)NCC2C1C3CCCc1ccccc1 (centres unmarked) [IF-900]		< 5		Anti-cancer cell activity ([1]; compounds of formula XXIF): c (c if greater than 20 µM and less than or equal to 40 µM)
CC(C)CN1C[C@@H]2C[C@H]3CN[C@]2(C(=O)NCc2ccc(Cl)cc2)[C@@H]1[C@@H]3CCc1ccccc1 (relative stereo) [IB-925]	c (c if greater than 20 µM and less than or equal to 40 µM)	< 5		
Cc1ccc(CNC(=O)[C@]23NC[C@@H]4C[C@H]2CN(CC(C)C)[C@H]3[C@@H]4CCc2ccccc2)cc1 (relative stereo) [IB-928]	c (c if greater than 20 µM and less than or equal to 40 µM)	< 5		
CC(C)CN1CC2CC3C=NC2(C(=O)NCc2cccc(Cl)c2)C1C3CCCCc1ccccc1 (centres unmarked) [IIB-342]		5 to 10	b (b if greater than 10 µM and less than or equal to 20 µM)	
COc1cccc(CNC(=O)C23N=CC4CC2CN(CC(C)C)C3C4CCCCc2ccccc2)c1 (centres unmarked) [IIB-345]		< 5	c (c if greater than 20 µM and less than or equal to 40 µM)	
CC(C)CN1C[C@@H]2C[C@H]3CN[C@]2(C(=O)NCc2ccc4ccccc4c2)[C@@H]1[C@@H]3CCc1ccccc1 (relative stereo) [IB-929]	b (b if greater than 10 µM and less than or equal to 20 µM)	< 5		
CC(C)CN1CC2CC3C=NC2(C(=O)NCc2cccc(Cl)c2)C1C3CCc1ccccc1 (centres unmarked) [IIB-332]		< 5	b (b if greater than 10 µM and less than or equal to 20 µM)	
Cc1cccc(CNC(=O)C23N=CC4CC2CN(CC(C)C)C3C4CCCCc2ccccc2)c1 (centres unmarked) [IIB-344]		< 5	b (b if greater than 10 µM and less than or equal to 20 µM)	
CC(C)CN1CC2CC3C=NC2(C(=O)NCc2ccc4ccccc4c2)C1C3CCc1ccccc1 (centres unmarked) [IIB-335]		< 5	c (c if greater than 20 µM and less than or equal to 40 µM)	
COc1cccc(CNC(=O)[C@]23NC[C@@H]4C[C@H]2CN(CC(C)C)[C@H]3[C@@H]4CCCc2ccccc2)c1 (relative stereo) [IB-934]	b (b if greater than 10 µM and less than or equal to 20 µM)	< 5		
Cc1cccc(CNC(=O)[C@]23NC[C@@H]4C[C@H]2CN(CC(C)C)[C@H]3[C@@H]4CCCc2ccccc2)c1 (relative stereo) [IB-933]	b (b if greater than 10 µM and less than or equal to 20 µM)	< 5		
CC(C)CCN1C[C@@H]2C[C@H]3CN[C@]2(C(=O)NCc2cccc(F)c2)[C@@H]1[C@@H]3CCCc1ccccc1 (relative stereo) [IB-940]	c (c if greater than 20 µM and less than or equal to 40 µM)	< 5		
CC(C)CN1CC2CC3(C(=O)NCc4ccccc4)NCC2C1C3CCCCc1ccccc1 (centres unmarked) [IF-899]		5 to 10		Anti-cancer cell activity ([1]; compounds of formula XXIF): c (c if greater than 20 µM and less than or equal to 40 µM)
CC(C)CN1C[C@H]2C[C@]3(C(=O)NCc4cccc(Cl)c4)N=C[C@H]2[C@H]1[C@H]3CCc1ccccc1 (relative stereo) [IIF-331]		< 5		Anti-cancer cell activity [1, 4]: c (c if greater than 20 µM and less than or equal to 40 µM)
CC(C)CN1CC2CC3(C(=O)NCc4cccc(F)c4)NCC2C1C3CCCCc1ccccc1 (centres unmarked) [IF-896]		< 5		Anti-cancer cell activity ([1]; compounds of formula XXIF): b (b if greater than 10 µM and less than or equal to 20 µM)
Cc1cccc(CNC(=O)[C@]23NC[C@@H]4C[C@H]2CN(CC(C)C)[C@H]3[C@@H]4CCCCc2ccccc2)c1 (relative stereo) [IB-937]	c (c if greater than 20 µM and less than or equal to 40 µM)	< 5		
CC(C)CN1C[C@@H]2C[C@H]3CN[C@]2(C(=O)NCc2ccccc2)[C@@H]1[C@@H]3CCCc1ccccc1 (relative stereo) [IB-930]	c (c if greater than 20 µM and less than or equal to 40 µM)	< 5		

Structure (SMILES)	Anti-cancer cell activity ([1]; compounds of formula XXIB)	IC50 ([2]; read-out: Anti-rabies activity) [µM]	Anti-cancer cell activity [1, 3]	also measured
CC(C)CN1CC2CC3C=NC2(C(=O)NCc2cccc(F)c2)C1C3CCCCc1ccccc1 (centres unmarked) [IIB-343]		< 5	c (c if greater than 20 µM and less than or equal to 40 µM)	
CC(C)CN1C[C@@H]2C[C@H]3CN[C@]2(C(=O)NCc2cccc(F)c2)[C@@H]1[C@@H]3CCCc1ccccc1 (relative stereo) [IB-932]	c (c if greater than 20 µM and less than or equal to 40 µM)	< 5		
CC(C)CN1C[C@@H]2C[C@H]3CN[C@]2(C(=O)NCc2cccc(Cl)c2)[C@@H]1[C@@H]3CCCCc1ccccc1 (relative stereo) [IB-935]	c (c if greater than 20 µM and less than or equal to 40 µM)	< 5		
CC(C)CN1CC2CC3CNC2(C(=O)NCc2cccc4ccccc24)C1C3CCc1ccccc1 (centres unmarked) [IB-958]	b (b if greater than 10 µM and less than or equal to 20 µM)	< 5		
CC(C)CN1C[C@@H]2C[C@H]3CN[C@]2(C(=O)NCc2ccccc2)[C@@H]1[C@@H]3CCCCc1ccccc1 (relative stereo) [IB-939]	c (c if greater than 20 µM and less than or equal to 40 µM)	< 5		
CC(C)CN1CC2CC3CNC2(C(=O)NCCc2ccccc2)C1C3CCc1ccccc1 (centres unmarked) [IB-957]	c (c if greater than 20 µM and less than or equal to 40 µM)	< 5		
CC(C)CN1CC2CC3C=NC2(C(=O)NCc2cccc(Cl)c2)C1C3CCCc1ccccc1 (centres unmarked) [IIB-337]		< 5	c (c if greater than 20 µM and less than or equal to 40 µM)	
CC(C)CCN1CC2CC3C=NC2(C(=O)NCc2cccc(F)c2)C1C3CCCc1ccccc1 (centres unmarked) [IIB-347]		< 5	c (c if greater than 20 µM and less than or equal to 40 µM)	
Cc1cccc(CNC(=O)C23N=CC4CC2CN(CC(C)C)C3C4CCCc2ccccc2)c1 (centres unmarked) [IIB-340]		< 5	c (c if greater than 20 µM and less than or equal to 40 µM)	
CC(C)CN1CC2CC3C=NC2(C(=O)NCc2cccc(F)c2)C1C3CCCc1ccccc1 (centres unmarked) [IIB-338]		< 5	c (c if greater than 20 µM and less than or equal to 40 µM)	
CC(C)CN1CC2CC3C=NC2(C(=O)NCc2ccc(Cl)cc2)C1C3CCc1ccccc1 (centres unmarked) [IIB-331]		< 5	c (c if greater than 20 µM and less than or equal to 40 µM)	
COc1ccc(CNC(=O)[C@]23NC[C@@H]4C[C@H]2CN(CC(C)C)[C@H]3[C@@H]4CCc2ccccc2)cc1 (relative stereo) [IB-927]	c (c if greater than 20 µM and less than or equal to 40 µM)	< 5		
Cc1ccc(CNC(=O)C23N=CC4CC2CN(CC(C)C)C3C4CCc2ccccc2)cc1 (centres unmarked) [IIB-334]		< 5	c (c if greater than 20 µM and less than or equal to 40 µM)	
NC(=O)c1nc(F)c[nH]c1=O [Compound T-705, Favipiravir]				prophylactic effect (rabies virus): significant prophylactic effect was confirmed and not; IC50 ([2]; read-out: IC50): 30 µM
CC(C)CCN1C[C@H]2C[C@]3(C(=O)NCc4ccc(Cl)cc4)N=C[C@H]2[C@H]1[C@H]3Cc1ccccc1 (relative stereo) [IIF-326]		< 5		Anti-cancer cell activity [1, 4]: b (b if greater than 10 µM and less than or equal to 20 µM)
Cc1cccc(CNC(=O)C23CC4CN(CC(C)C)C(C4CN2)C3CCCCc2ccccc2)c1 (centres unmarked) [IF-897]		< 5		Anti-cancer cell activity ([1]; compounds of formula XXIF): b (b if greater than 10 µM and less than or equal to 20 µM)
CC(C)CN1CC2CC3(C(=O)NCc4cccc(Cl)c4)NCC2C1C3CCCCc1ccccc1 (centres unmarked) [IF-895]		< 5		Anti-cancer cell activity ([1]; compounds of formula XXIF): b (b if greater than 10 µM and less than or equal to 20 µM)
CC(C)CN1C[C@H]2C[C@]3(C(=O)NCc4ccc(Cl)cc4)N=C[C@H]2[C@H]1[C@H]3CCc1ccccc1 (relative stereo) [IIF-330]		< 5		Anti-cancer cell activity [1, 4]: c (c if greater than 20 µM and less than or equal to 40 µM)
COc1cccc(CNC(=O)C23N=CC4CC2CN(CC(C)C)C3C4CCCc2ccccc2)c1 (centres unmarked) [IIB-341]		< 5	c (c if greater than 20 µM and less than or equal to 40 µM)	
CC(C)CN1C[C@@H]2C[C@H]3CN[C@]2(C(=O)NCc2cccc(Cl)c2)[C@@H]1[C@@H]3CCCc1ccccc1 (relative stereo) [IB-931]	c (c if greater than 20 µM and less than or equal to 40 µM)	< 5		
CC(C)CC[C@@H]1[C@@H]2CN[C@@]3(C(=O)NCCC(N)=O)[C@@H](C2)CN(CC2CCCCC2)[C@@H]13 (relative stereo) [IB-357]		10 to 30		
O=C(NCCc1ccccc1)[C@@]12C[C@@H]3CN(CCO)[C@@H]([C@@H]3CN1)[C@H]2Cc1cccc2ccccc12 (relative stereo) [IF-610]		10 to 30		
